Like-named read-outs stand apart in the source and are kept apart here. Starred links: 1 amine or outer side, 2 acyl side, 3 side chain; linkers in the order of their positions; H or OH if unused. Positions of bridges follow the written chain, without caps; N, C: chain ends. Non-standard residues stand in square brackets, D forms with d. Residues, ends and D or L forms follow the SMILES beside them. ξ: configuration not given here. *: point of attachment. Phe(4-(CH2)5CO) = O=C([C@H](Cc1ccc(CCCCCC(=O)[*:3])cc1)N[*:1])[*:2]; Phe(4-CF3) = N[C@@H](Cc1ccc(C(F)(F)F)cc1)C(=O)O; NMePhe(3-Cl) = CN[C@@H](Cc1cccc(Cl)c1)C(=O)O; hhPhe = N[C@@H](CCCc1ccccc1)C(=O)O; NMeF = CN[C@@H](Cc1ccccc1)C(=O)O; NMeGABA = CN(CCCC(=O)[*:2])[*:1]; NMeI = CC[C@H](C)[C@H](NC)C(=O)O; NMeβAla = CN(CCC(=O)[*:2])[*:1]; NMeL = CN[C@@H](CC(C)C)C(=O)O; ξNMeF = CNC(Cc1ccccc1)C(=O)O; NMeV = CN[C@H](C(=O)O)C(C)C; NMeA = CN[C@@H](C)C(=O)O; Piperidide = C1CCN(*)CC1; dNMeA = CN[C@H](C)C(=O)O; β3hA = C[C@H](N)CC(=O)O; Sar = CNCC(=O)O; tBu = CC(C)(C)*
How the values were obtained:
[1] = PAMPA (parallel artificial membrane permeability assay); type: in vitro ADME; settings: for Papp at 18 hours, 50 µM: PAMPA
Summary of the method: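 Artificial membrane was 10% (w/v) egg lecithin plus 0.5% (w/v) cholesterol in dodecane on a PVDF filter. A 10 mM DMSO stock was added at 0.5% (v/v) to donor buffer (50 mM MOPSO, pH 6.5, 5.0% glycocholic acid). After 18 h at 37 °C, LC/MS or LC/UV gave donor and acceptor levels for Pe.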

[2] = Metabolic stability in human hepatic microsome; type: in vitro ADME; settings: microsomes
[3] = membrane permeation rate (Pe), 50 mM MOPSO buffer pH 6.5 with 5.0% glycocholic acid, 37° C., 18 hours, read-out: iPAMPA Pe
[4] = pH 7.4, human hepatic microsome, NADPH(+), read-out: CL NADPH(+)

| Compound | Papp at 18 hours, 50 µM [1, 3] | microsomal CLint at 1 uM [2, 4] | Papp at 18 hours, 50 µM ([1]; pH 6.5) | microsomal CLint at 1 uM ([2]; human, pH 7.4, CL NADPH(+)) | iPAMPA Pe ([1]; membrane permeation rate (Pe), 50 mM MOPSO buffer pH 6.5 with 5.0% glycocholic acid, 37° C., 18 hours) |
| --- | --- | --- | --- | --- | --- |
| CC(C)C[C@H]1C(=O)N[C@@H](C(C)C)C(=O)N[C@H](C(=O)N(C)[C@@H](Cc2ccccc2)C(=O)N[C@@H](C)C(=O)N2CCCCC2)CC(=O)N[C@H](C)C(=O)N(C)[C@@H](C)C(=O)N(C)[C@@H](Cc2ccccc2)C(=O)N(C)[C@@H](CC(C)C)C(=O)N[C@@H]([C@@H](C)O)C(=O)N(C)CC(=O)N1C [DP-380] ([dA][NMeA][NMeF][NMeL]T[Sar][NMeL]VD[NMeF]A-Piperidide; lactam N-9) | 17 ×10⁻⁶ cm/s | 58 µL/min/mg | – | – | – |
| CC[C@H](C)[C@H]1C(=O)N(C)[C@@H](C)C(=O)N(C)[C@@H](Cc2ccccc2)C(=O)N[C@@H]([C@@H](C)O)C(=O)N(C)[C@@H](Cc2ccccc2)C(=O)N(C)[C@@H](CC(C)C)C(=O)N2CCC[C@H]2C(=O)N[C@@H](C)CC(=O)N[C@@H](C)C(=O)NCC(=O)N(C)[C@@H](CC(C)C)C(=O)N1C [DP-767] (cyclo(AG[NMeL][NMeI][NMeA][NMeF]T[NMeF][NMeL]P[β3hA])) | – | – | 30 ×10⁻⁶ cm/s | 34 µL/min/mg | – |
| CC[C@H](C)[C@@H]1NC(=O)CCCN(C)C(=O)C[C@@H](C(=O)N2CCCCC2)NC(=O)[C@H](Cc2ccccc2)N(C)C(=O)[C@H](CC(C)C)N(C)C(=O)CN(C)C(=O)[C@H]([C@@H](C)O)NC(=O)[C@H](C)N(C)C(=O)[C@H](C(C)C)N(C)C(=O)[C@H](C)NC(=O)[C@H](CC(C)C)N(C)C(=O)[C@H](Cc2ccccc2)N(C)C1=O [DP-468] ([NMeGABA]I[NMeF][NMeL]A[NMeV][NMeA]T[Sar][NMeL][NMeF]D-Piperidide; lactam N-12) | 27 ×10⁻⁶ cm/s | 53 µL/min/mg | – | – | – |
| CC(C)C[C@H]1C(=O)N[C@@H](C(C)C)C(=O)N[C@H](C(=O)N(C)C(Cc2ccccc2)C(=O)N(C)[C@@H](Cc2ccccc2)C(=O)N[C@@H](C)C(=O)N2CCCCC2)CC(=O)N[C@H](C(C)C)C(=O)N(C)[C@@H](C)C(=O)N(C)[C@@H](Cc2ccccc2)C(=O)N(C)[C@@H](CC(C)C)C(=O)N[C@@H]([C@@H](C)O)C(=O)N(C)CC(=O)N1C (stereo partly drawn) [DP-306] ([dV][NMeA][NMeF][NMeL]T[Sar][NMeL]VD[ξNMeF][NMeF]A-Piperidide; lactam N-9) | – | – | 56 ×10⁻⁶ cm/s | 63 µL/min/mg | – |
| CC[C@H](C)[C@@H]1NC(=O)[C@H](Cc2ccccc2)N(C)C(=O)[C@@H](C)NC(=O)C[C@@H](C(=O)N2CCCCC2)NC(=O)[C@H](C(C)C)N(C)C(=O)[C@H](Cc2ccccc2)N(C)C(=O)[C@H](COC(C)(C)C)NC(=O)[C@H](CC(C)C)N(C)C(=O)CN(C)C(=O)[C@H]([C@@H](C)O)NC(=O)[C@H](CC(C)C)N(C)C1=O [DP-110] ([dA][NMeF]I[NMeL]T[Sar][NMeL]S(tBu)[NMeF][NMeV]D-Piperidide; lactam N-11) | 30 ×10⁻⁶ cm/s | 36 µL/min/mg | – | – | – |
| CC(C)C[C@@H]1NC(=O)[C@H](C(C)C)NC(=O)[C@H](Cc2ccccc2)NC(=O)CCN(C)C(=O)C[C@@H](C(=O)N2CCCCC2)NC(=O)[C@H](CC(C)C)N(C)C(=O)[C@H](CC(C)C)NC(=O)[C@H](C(C)C)N(C)C(=O)[C@H](CC(C)C)NC(=O)[C@H]([C@@H](C)O)NC(=O)CN(C)C1=O [DP-472] ([NMeβAla]FVL[Sar]TL[NMeV]L[NMeL]D-Piperidide; lactam N-11) | 24 ×10⁻⁶ cm/s | 52 µL/min/mg | – | – | – |
| CC(C)C[C@H]1C(=O)NCC(=O)N[C@H](C(=O)N(C)[C@@H](Cc2ccccc2)C(=O)N[C@@H](C)C(=O)N2CCCCC2)CC(=O)N[C@@H](C)C(=O)N[C@@H]([C@@H](C)O)C(=O)N(C)[C@@H](C)C(=O)N(C)[C@@H](Cc2ccccc2)C(=O)N[C@@H](C(C)C)C(=O)N(C)[C@@H](Cc2ccccc2)C(=O)N1C [DP-378] (AT[NMeA][NMeF]V[NMeF][NMeL]GD[NMeF]A-Piperidide; lactam N-9) | 31 ×10⁻⁶ cm/s | 219 µL/min/mg | – | – | – |
| CC[C@H](C)[C@H](NC(=O)[C@H](CC(C)C)N(C)C(=O)[C@@H]1CCCN1C(=O)[C@@H](NC(=O)[C@H](C)N(C)C(=O)[C@@H]1CC(=O)N[C@@H](C)C(=O)N(C)[C@@H](CC(C)C)C(=O)N(C)[C@@H](Cc2cccc(Cl)c2)C(=O)N[C@@H](C(C)C)C(=O)N(C)[C@@H](CC(C)C)C(=O)N(C)[C@@H](CC(C)C)C(=O)N[C@@H]([C@@H](C)O)C(=O)N[C@@H](Cc2ccccc2)C(=O)N1)C(C)C)C(=O)N1CCCCC1 [DP-936] (A[NMeL][NMePhe(3-Cl)]V[NMeL][NMeL]TFD[NMeA]VP[NMeL]I-Piperidide; lactam N-9) | 0.11 ×10⁻⁶ cm/s | 29 µL/min/mg | – | – | – |
| CC(C)C[C@@H]1NC(=O)[C@@H]2CCCN2C(=O)[C@H](Cc2ccccc2)N(C)C(=O)[C@H](C)N(C)C(=O)[C@H]([C@@H](C)O)NC(=O)[C@@H](C(C)C)NC(=O)C[C@@H](C(=O)N2CCCCC2)NC(=O)[C@H](CC(C)C)N(C)C(=O)[C@H](C)N(C)C(=O)[C@H](CCCc2ccccc2)NC(=O)[C@H](C(C)C)N(C)C1=O [DP-733] ([dV]T[NMeA][NMeF]PL[NMeV][hhPhe][NMeA][NMeL]D-Piperidide; lactam N-11) | 26 ×10⁻⁶ cm/s | 97 µL/min/mg | – | – | – |
| CC(C)C[C@@H]1NC(=O)[C@H](CC(C)C)N(C)C(=O)[C@H](C)NC(=O)[C@H](C(C)C)N(C)C(=O)CN(C)C(=O)[C@H](Cc2ccccc2)NC(=O)[C@H]([C@@H](C)O)NC(=O)[C@H](CC(C)C)N(C)C(=O)[C@@H](C)N(C)C(=O)C[C@@H](C(=O)N2CCCCC2)NC(=O)[C@H](CC(C)C)N(C)C1=O [DP-418] ([dNMeA][NMeL]TF[Sar][NMeV]A[NMeL]L[NMeL]D-Piperidide; lactam N-11) | 28 ×10⁻⁶ cm/s | 71 µL/min/mg | – | – | – |
| CC[C@H](C)[C@H]1C(=O)N[C@@H](C)C(=O)N(C)[C@@H](Cc2ccccc2)C(=O)N[C@@H]([C@@H](C)O)C(=O)N(C)[C@@H](CC(C)C)C(=O)N[C@@H](Cc2ccccc2)C(=O)N(C)[C@@H](C(C)C)C(=O)N[C@H](C(=O)N2CCCCC2)Cc2ccc(cc2)CCCCCC(=O)NCC(=O)N(C)[C@@H](CC(C)C)C(=O)N1C [DP-865] (G[NMeL][NMeI]A[NMeF]T[NMeL]F[NMeV][Phe(4-(CH2)5CO)]-Piperidide; lactam N-10) | 15 ×10⁻⁶ cm/s | 87 µL/min/mg | – | – | – |
| CC[C@H](C)[C@@H]1NC(=O)[C@H](C)N(C)C(=O)[C@H](Cc2ccccc2)N(C)C(=O)[C@@H](C)N(C)C(=O)C[C@@H](C(=O)N(C)[C@@H](Cc2ccccc2)C(=O)N(C)[C@@H](Cc2ccccc2)C(=O)N[C@@H](C)C(=O)N2CCCCC2)NC(=O)[C@H](C)N(C)C(=O)[C@H]([C@@H](C)O)NC(=O)[C@H](C)N(C)C(=O)[C@H](CC(C)C)N(C)C(=O)[C@H](C)N(C)C1=O [DP-455] ([dNMeA][NMeF][NMeA]I[NMeA][NMeL][NMeA]T[NMeA]D[NMeF][NMeF]A-Piperidide; lactam N-10) | 15 ×10⁻⁶ cm/s | 17 µL/min/mg | – | – | – |
| CC(C)C[C@@H]1NC(=O)[C@H](C)NC(=O)C[C@H](C)NC(=O)[C@H](C(C)C)N(C)C(=O)[C@H](Cc2ccc(C(F)(F)F)cc2)NC(=O)[C@H](CC(C)C)N(C)C(=O)[C@H]([C@@H](C)O)NC(=O)[C@H](Cc2ccc(C(F)(F)F)cc2)NC(=O)[C@H](C)N(C)C(=O)CNC(=O)[C@H](CC(C)C)N(C)C(=O)[C@H](C)N(C)C1=O [DP-814] (cyclo(AL[NMeA][NMeL]G[NMeA][Phe(4-CF3)]T[NMeL][Phe(4-CF3)][NMeV][β3hA])) | 57 ×10⁻⁶ cm/s | 22 µL/min/mg | – | – | – |
| CC[C@H](C)[C@H](NC(=O)[C@H](CC(C)C)N(C)C(=O)[C@H](CC(C)C)N(C)C(=O)[C@H](Cc1ccccc1)N(C)C(=O)[C@@H]1CC(=O)N[C@H](C(C)C)C(=O)N(C)[C@@H](Cc2cccc(Cl)c2)C(=O)N(C)[C@@H](C)C(=O)N(C)[C@@H](CC(C)C)C(=O)N[C@@H]([C@@H](C)O)C(=O)N(C)[C@@H](CC(C)C)C(=O)N1)C(=O)N1CCCCC1 [DP-916] ([dV][NMePhe(3-Cl)][NMeA][NMeL]T[NMeL]D[NMeF][NMeL][NMeL]I-Piperidide; lactam N-7) | – | 55 µL/min/mg | – | – | 1.0E−07 |
| CC[C@H](C)[C@H]1C(=O)N(C)[C@@H](CC(C)C)C(=O)N(C)[C@@H](Cc2ccccc2)C(=O)N[C@@H]([C@@H](C)O)C(=O)N(C)[C@@H](Cc2ccccc2)C(=O)N(C)[C@@H](CC(C)C)C(=O)N(C)[C@@H](CC(C)C)C(=O)N[C@H](C(=O)N2CCCCC2)CC(=O)N[C@H](C(C)C)C(=O)N[C@@H](C)C(=O)N1C [DP-256] ([dV]A[NMeI][NMeL][NMeF]T[NMeF][NMeL][NMeL]D-Piperidide; lactam N-10) | 19 ×10⁻⁶ cm/s | 44 µL/min/mg | – | – | – |
| CC(C)C[C@@H]1NC(=O)[C@H](C)NC(=O)C[C@H](C)NC(=O)[C@H](Cc2ccccc2)N(C)C(=O)[C@H](CC(C)C)N(C)C(=O)[C@H](C)NC(=O)[C@H](Cc2ccccc2)N(C)C(=O)[C@H](CC(C)C)N(C)C1=O [DP-798] (cyclo(AL[NMeL][NMeF]A[NMeL][NMeF][β3hA])) | 69 ×10⁻⁶ cm/s | 1540 µL/min/mg | – | – | – |
| CC(C)C[C@H]1C(=O)NCC(=O)N[C@H](C(=O)N2CCCCC2)CC(=O)N(C)CCC(=O)N[C@@H]([C@@H](C)O)C(=O)N(C)[C@@H](C)C(=O)N[C@@H](COC(C)(C)C)C(=O)N(C)[C@@H](Cc2ccccc2)C(=O)N1C [DP-522] ([NMeβAla]T[NMeA]S(tBu)[NMeF][NMeL]GD-Piperidide; lactam N-8) | 5.3 ×10⁻⁶ cm/s | 87 µL/min/mg | – | – | – |
| CC(C)C[C@H]1C(=O)N[C@H](C(=O)N(C)[C@@H](Cc2ccccc2)C(=O)N(C)[C@@H](Cc2ccccc2)C(=O)N[C@@H](C)C(=O)N2CCCCC2)CC(=O)N[C@@H](C)C(=O)N(C)[C@@H](Cc2ccccc2)C(=O)N(C)[C@@H](CC(C)C)C(=O)N[C@@H]([C@@H](C)O)C(=O)N(C)[C@@H](C)C(=O)N(C)[C@@H](CC(C)C)C(=O)N[C@@H](C(C)C)C(=O)N1C [DP-208] (A[NMeF][NMeL]T[NMeA][NMeL]V[NMeL]D[NMeF][NMeF]A-Piperidide; lactam N-9) | 27 ×10⁻⁶ cm/s | 34 µL/min/mg | – | – | – |

Reference: patent publication US9409952B2, “Peptide-compound cyclization method” (Chugai Seiyaku Kabushiki Kaisha, priority 2011, dated 2016)
